The source of these data is PMC6853638, “TMC1 is an essential component of a leak channel that modulates tonotopy and excitability of auditory hair cells in mice” (eLife, 2019).

The target of test [1] is T1, TMC1-M412C (Mus musculus, UniProt Q8R4P5, M412C).
T1 construct: control full-length TMC1 (TMC1_WT); expressed in transfected cells; host or cells: Tmc1;Tmc2 double-knockout mouse OHCs (P1 + 3 DIV), injectoporation
Further details: method as in Pan et al., 2018. To be noted: MTSET treatment of M412C; ref Pan et al., 2018; cited from earlier work.

Test [2] has as its system cysteine-substituted TMC1 constructs. The test is described as follows: Background current before and after MTSET treatment in Tmc1-knockout OHCs expressing cysteine-substituted TMC1. It is filed as cell-based, mouse. Particulars: OHCs expressing any of the six cysteine-substituted TMC1 constructs. The method, then:
(§1) Mouse Tmc1 and Tmc2 cDNAs were cloned into CMV-Script and pCDNA3.1- vectors, respectively. To obtain the Tmc1-deafness vector and amino-acid-substituted Tmc1 constructs, specific primers were designed and used for PCR (Supplementary File 1). […] In brief, the organ of Corti was isolated from P3 mice and cut into three pieces in Dulbecco’s modified Eagle’s medium/F12 with 1.5 μg/ml ampicillin. For electroporation, a glass pipette (2 μm tip diameter) was used to deliver cDNA plasmids (0.2 μg/μl in 1 × Hanks' balanced salt solution) to hair cells in the sensory epithelium. EGFP was used as an indicator for the selection of transfected hair cells. A series of three pulses at 60 V lasting 15 ms at 1 s intervals was applied to cochlear tissues by an electroporator (ECM Gemini X2, BTX, CA). The cochlear tissues were cultured for 1 day in vitro and then used for electrophysiological recording.
(§2) All experiments were performed at room temperature (20–25°C). Briefly, the basilar membrane with hair cells was acutely dissected from neonatal mice. […] The acutely isolated or cultured basilar membrane was used for electrophysiological recording within 1 h. […] Hair cells were recorded with a patch-clamp amplifier (EPC 10 USB and Patchmaster software, HEKA Elektronik, Lambrecht/Pfalz, Germany).
(§3) The sampling rate was 1 kHz for leak current recording, 50 kHz for the IV protocol and current-clamp recording, and 100 kHz for unitary channel recording. The voltage-clamp used a –70 mV holding potential, and the current-clamp was held at 0 pA. Only recordings with a current baseline <20 pA in NMDG solution were used for statistical analysis.

Test [3] concerns the target T2, cysteine-substituted TMC1 constructs (Mus musculus, UniProt Q8R4P5, D569C).
T2 construct: control full-length TMC1 (TMC1_WT); expressed in transfected cells; host or cells: Tmc1-knockout mouse OHCs, injectoporation
T2 sequence (Q8R4P5 1-757 D569C): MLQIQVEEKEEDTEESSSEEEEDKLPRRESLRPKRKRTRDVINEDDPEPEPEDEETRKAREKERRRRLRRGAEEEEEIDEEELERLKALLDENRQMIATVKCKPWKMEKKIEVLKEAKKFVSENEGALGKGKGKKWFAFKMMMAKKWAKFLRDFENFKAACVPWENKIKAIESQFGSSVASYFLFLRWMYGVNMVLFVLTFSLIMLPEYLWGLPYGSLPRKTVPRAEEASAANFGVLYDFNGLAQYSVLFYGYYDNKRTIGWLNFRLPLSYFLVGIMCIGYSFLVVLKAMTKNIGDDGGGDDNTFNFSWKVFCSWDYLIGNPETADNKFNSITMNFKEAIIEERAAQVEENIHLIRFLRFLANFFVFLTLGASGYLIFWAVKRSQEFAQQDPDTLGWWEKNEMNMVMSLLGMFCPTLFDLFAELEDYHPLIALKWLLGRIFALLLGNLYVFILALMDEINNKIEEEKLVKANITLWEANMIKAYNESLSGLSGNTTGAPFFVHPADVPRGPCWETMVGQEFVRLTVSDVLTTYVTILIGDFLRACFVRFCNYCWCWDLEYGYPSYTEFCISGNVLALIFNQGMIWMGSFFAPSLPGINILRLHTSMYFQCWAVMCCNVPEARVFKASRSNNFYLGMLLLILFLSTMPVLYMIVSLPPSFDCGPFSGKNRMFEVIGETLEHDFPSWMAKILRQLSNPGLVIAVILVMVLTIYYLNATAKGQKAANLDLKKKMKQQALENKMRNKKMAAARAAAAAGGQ
Described as above. To be noted: Tmc1-knockout OHCs expressing TMC1-D569C, individual cells. It is filed as cell-based. On the procedure: as §1, §2, §3

Test [4] has as its target T3, cysteine-substituted TMC1 constructs (Mus musculus, UniProt Q8R4P5, T532C).
T3 construct: control full-length TMC1 (TMC1_WT); expressed in transfected cells; host or cells: Tmc1-knockout mouse OHCs, injectoporation
T3 sequence (Q8R4P5 1-757 T532C): T2 sequence (Q8R4P5 1-757 D569C) with T532C, C569D
The test is described as above. It is filed as cell-based. Particulars: Tmc1-knockout OHCs expressing TMC1-T532C, individual cells. On the procedure:
as §1, §2, §3

For test [5], the target named is T1, TMC1-M412C. Briefly: MET current under MTSET treatment in Tmc1;Tmc2 double-knockout OHCs expressing TMC1-M412C. The test is classed as cell-based.

SMILES strings stand for the structures. Positions count from the first letter of the chain named. Values joined by “and” are separate entries in the source; they are usually repeats but may differ in a detail not shown here. Equal values may be shown once.

T1 sequence (Q8R4P5 whole entry M412C): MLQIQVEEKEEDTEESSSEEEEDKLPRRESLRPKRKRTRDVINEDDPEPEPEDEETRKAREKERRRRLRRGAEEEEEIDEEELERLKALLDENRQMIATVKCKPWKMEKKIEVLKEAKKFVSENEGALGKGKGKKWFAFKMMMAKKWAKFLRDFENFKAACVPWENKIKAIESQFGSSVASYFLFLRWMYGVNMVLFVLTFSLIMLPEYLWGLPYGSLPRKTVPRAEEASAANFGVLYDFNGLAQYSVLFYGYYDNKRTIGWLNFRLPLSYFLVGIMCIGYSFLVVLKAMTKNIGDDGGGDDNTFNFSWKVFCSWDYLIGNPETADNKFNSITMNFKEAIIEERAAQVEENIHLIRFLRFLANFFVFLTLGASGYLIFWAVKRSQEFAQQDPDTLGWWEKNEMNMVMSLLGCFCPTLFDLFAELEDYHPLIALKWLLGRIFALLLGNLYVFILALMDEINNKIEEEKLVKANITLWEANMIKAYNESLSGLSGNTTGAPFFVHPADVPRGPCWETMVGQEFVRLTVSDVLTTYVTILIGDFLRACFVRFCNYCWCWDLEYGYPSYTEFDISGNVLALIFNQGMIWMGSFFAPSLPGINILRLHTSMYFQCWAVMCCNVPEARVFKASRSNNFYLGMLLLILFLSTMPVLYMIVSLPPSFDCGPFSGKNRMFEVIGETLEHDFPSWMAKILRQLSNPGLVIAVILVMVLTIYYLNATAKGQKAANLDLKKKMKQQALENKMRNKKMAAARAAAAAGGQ
T1 sequence (Q4KL25 whole entry partner): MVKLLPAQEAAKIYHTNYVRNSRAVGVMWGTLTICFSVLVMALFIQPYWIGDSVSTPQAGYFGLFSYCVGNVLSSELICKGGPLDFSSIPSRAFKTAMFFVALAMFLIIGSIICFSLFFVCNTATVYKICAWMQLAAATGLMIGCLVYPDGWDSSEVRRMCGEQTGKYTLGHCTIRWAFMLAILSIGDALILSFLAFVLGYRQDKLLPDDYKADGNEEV
T1 sequence (Q8K467 29-153 partner): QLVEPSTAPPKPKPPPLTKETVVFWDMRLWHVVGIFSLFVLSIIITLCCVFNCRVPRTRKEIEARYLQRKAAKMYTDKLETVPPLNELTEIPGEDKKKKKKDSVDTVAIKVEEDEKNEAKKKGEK
T1 sequence (Q9Z309 whole entry partner): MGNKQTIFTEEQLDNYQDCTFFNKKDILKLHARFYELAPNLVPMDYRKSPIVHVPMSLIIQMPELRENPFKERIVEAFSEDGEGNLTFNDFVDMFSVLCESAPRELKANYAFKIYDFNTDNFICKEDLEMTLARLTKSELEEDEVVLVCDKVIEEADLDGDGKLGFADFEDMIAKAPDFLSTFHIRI

Consider `C[N+](C)(C)CCSS(C)(=O)=O.[Br-]` [MTSET, 2-(trimethylammonium)ethyl methanethiosulfonate, bromide], for which the “effect on the MET current” value on TMC1-M412C [1] is recorded as “reduced the MET current”. Besides, the “effect on the current baseline” value in test [2] is “did not, however, change the current baseline”. In addition, the “amplitude of the background current after MTSET treatment” value is -25.3123 and -14.3715 and -14.7309 and -35.792 in test [3]; -61.9555 and -32.5794 and -12.1284 and -34.0535 and -31.604 in test [4]. Besides, the “effect on the MET current amplitude” value on TMC1-M412C [5] is given as “did change the MET current amplitude”.
